Source: patent publication US20100291074A1, “CYCLOPHILIN D-AMYLOID BETA INTERACTION POTENTIATES MITOCHONDRIAL DYSFUNCTION IN A TRANSGENIC MOUSE MODEL OF ALZHEIMER'S DISEASE” (COLUMBIA UNIVERSITY IN THE CITY OF NEW YORK, priority 2007, published 2010)
“Also recorded” adds a separate entry of the source.

Tested on: cultured cortical neurons
Assay: Mitochondrial membrane potential (TMRM) in cultured neurons
Assay type: cell-based, mice
Settings: for TMRM-positive neurons after H2O2: H2O2 one hour, FACS
Experimental: FIGS. 5. […] (A) Western blot of cultured cortical neuron derived from nonTg and CypD-deficient mice was performed by specific α-CypD IgG. […] (F-G) FACS analysis of TMRM staining in nonTg and CypD−/− neurons treated with increasing concentrations of H2O2 for one hour. (G) Analyses of % TMRM positive neurons combined 3-4 independent experiments. […] (H-I) TMRM staining in H2O2-treated nonTg and CypD−/− neurons as shown by confocal microscopy in live cells. (J-L). FACS analysis of propidium iodide (PI) staining in nonTg and CypD−/−neurons treated with H2O2 for one hour. Percentages of PI-positive and -negative cells were shown as red line and black line, respectively.
Mitochondrial membrane potential […] was determined in primary cultured neuron derived from nonTg and Tg CypD−/− mice.
Murine cortical neurons were cultured as described. Briefly, murine cortex were dissected from Day 1 pups of nonTg and Tg CypD−/− mice, dissociated with 0.05% trypsin, and triturated in ice-cold Neurobasal A medium. Cells were then centrifuged at 200 g for 5 min to get rid of the debris. The resulting pellets were resuspended in culture medium (neurobasal A with 2% B27 supplement, 0.5 mM L-glutamine, 50 U/ml penicillin, and 50 μg/ml streptomycin) and plated onto poly-L-lysine-coated culture plates with an appropriate density. Aβ or H2O2 was added to the cultured medium at day 5 cultured neurons.
Primary cultured neurons derived from nonTg and CypD-deficient mice were incubated with 2 μM oligomeric Aβ, or H2O2 for various time points. The mitochondrial ROS was detected with 1 μM MitoSox staining The cytochrome c release was assessed by ELISA (Active Motif). Mitochondrial membrane potential was determined by TMRM labeling and analyzed by flow cytometry as described above. Apoptosis was assessed by TUNEL assay using in situ cell death detection kit (Roche).

Compound	mitochondrial membrane potential ΔΨm (TMRM) (FCCP (1 μM), nonTg and CypD−/− neurons)	TMRM-positive neurons after H2O2 (CypD−/− neurons, from 73% before)	TMRM-positive neurons after H2O2 (nonTg neurons, from 73.8% before)
N#CC(C#N)=NNc1ccc(OC(F)(F)F)cc1 [FCCP, carbonyl cyanide p-(trifluoromethoxy) phenylhydrazone]	able to dissipate mitochondria ΔΨ; also recorded: dissipated membrane ΔΨm	–	–
OO [H2O2]	–	32%	5.5%
